Measured values published in US20060199172A1, “Laminated cell culture containing hepatocytes and method for detecting endocrine-like substance” (FUJI PHOTO FILM CO., LTD., priority 2005, published 2006).

Tests used:
rat primary hepatocytes = experiment: AST release into the medium from cultured hepatocytes after adding the substance; type: cell-based; details: 0.1 μg/ml, measured over time
Method: Rat primary hepatocytes (collected by the method described in “Techniques of Tissue Culture, Second edition”, Ed. by Japan Tissue Culture Association, Asakura Publishing, p. 135) were inoculated on a 12-well microplate (FALCON, No. 3505) in an amount of 50000 cells/well and cultured for 24 hours under the conditions of 37° C. and 5% CO2. Separately, the carrier for cell culture prepared in Example 1 was adhered to bottom of a 20-mm petri dish (FALCON, No. 2163) with a small amount of sterilized water. 20,000 cells of rat vascular endothelial cells A-10 (Dainippon Pharmaceutical Co., Ltd.) were inoculated on the carrier for cell culture and cultured for 72 hours under the conditions of 37° C. and 5% CO2. As the medium, 10% FBS Eagle's MEM medium (GIBCO) was used for both cultures. The rat vascular endothelial cell culture obtained was carefully placed on the aforementioned rat primary hepatocytes on the 12-well microplate so that the cell growing side contacted with the rat primary hepatocytes, and cultured for 24 hours under the conditions of 37° C. and 5% CO2. […]
The laminated cell culture prepared in Example 2 and the hepatocytes cultured as monolayer culture was added with 0.1 μg/ml of chloropramazine, and the amount of AST released into the medium was measured over time.

MCF-7 cells = experiment: Detection of endocrine-like substance by number of MCF-7 cells in the laminated cell culture system; type: cell-based; details: laminated cell culture system (MCF-7 + rat primary hepatocytes + rat vascular endothelial cells), 0.1 μg/ml, 14 days; compared with MCF-7 only and monolayer hepatocytes + MCF-7
Method: 40,000 of estrogen-like substance detection cells (MCF-7) were inoculated on a 12-well microplate and cultured for 7 days under the conditions of 37° C. and 5% CO2 to prepare an MCF-7 cell layer.
The carrier for cell culture prepared in Example 1 was adhered to bottom of a 20-mm petri dish (FALCON, No. 2163) with a small amount of sterilized water, and 40,000 cells of rat primary hepatocytes (collected by the method described in “Techniques of Tissue Culture, Second edition”, Ed. by Japan Tissue Culture Association, Asakura Publishing, p. 135) were inoculated on the carrier for cell culture and cultured for 24 hours under the conditions of 37° C. and 5% CO2. In the same manner, 20,000 cells of rat vascular endothelial cells A-10 (Dainippon Pharmaceutical Co., Ltd.) were inoculated on the carrier for cell culture prepared in Example 1 and cultured for 72 hours under the conditions of 37° C. and 5% CO2.
The rat primary hepatocyte cell culture obtained was carefully placed on the MCF-7 cell layer on the 12-well microplate so that the side of the growth of the rat primary hepatocyte was on the side of the MCF-7 cells, and cultured for 24 hours under the conditions of 37° C. and 5% CO2. […]

rat uterus = details: in vivo; cited from earlier work

SMILES	amount of AST released into the medium (rat primary hepatocytes; laminated cell culture (rat primary hepatocytes + rat vascular endothelial cells A-10))	amount of AST released into the medium (rat primary hepatocytes; primary hepatocytes cultured as monolayer culture)	number of MCF-7 cells (MCF-7 cells)	rat uterus proliferation test result (rat uterus)
CN(C)CCCN1c2ccccc2Sc2ccc(Cl)cc21 [chloropramazine]	increase in the amount of AST was observed	AST was not detected		
CC(C)c1cc(C(C)C)c2ccccc2c1 [2,4-diisopropylnaphthalene]			maximum value	positive
